Where two headings read alike, the source gives them in different places.
Biological target: CCR5 (Homo sapiens (Human), UniProt P51681)
Assay: Calcium flux inhibition experiment
Assay type: cell-based
Conditions: for calcium influx inhibition effect in words, versus positive control compounds: conclusion from Table 1
Excerpt: Experiment apparatus: FlexStation II
Experiment materials: HEK293/CCR5-Gα16 cell line, Fluo-4calcium dye (fluorescent-4 calcium ion dye) and FlexStation instrument.
Experiment theory: Activation of the receptor can cause the activation of Gα16 protein, thereby activating phospholipase C (PLC) to generate IP3 and DAG by establishing CCR5 and Ga16 co-transfected cell line. IP3 can bind to IP3 receptors on the endoplasmic reticulum and mitochondria in a cell, which can cause the release of intracellular calcium. Thus, determination of changes in intracellular calcium can be used as a method to detect CCR5 activation state. Fluo-4/AM is a fluorescent probe indicator for calcium used to measure calcium ion. As a non-polar lipid-soluble compound, after it enters into cells, AM group is dissociated to release Fluo-4 under the effect of cell lipolysis enzyme. Fluo-4 is a polar molecule and not easy to go through the lipid bilayer membrane, therefore it can stay within the cells for a long time. Ultimately, the level of activated Ga protein can be reflected by measuring the excited fluorescence intensity. If the screened compound can activate CCR5, it can greatly increase the calcium flux reaction; on the contrary, if the screened compound can antagonize CCR5, it can greatly reduce calcium flux reaction.
1. HEK293 cells which can stably express CCR5 were inoculated in a 96-well plate and incubated overnight.
2. The medium in each well into which cells were innoculated was removed and 40 μl/well of freshly prepared dye was added. The plate was placed in a 37° C. incubator and incubated for 40 minutes at constant temperature.
3. The medicament to be determined was diluted with calcium buffer to eight concentration gradients, which is 1×10^−4 M, 1×10^−5 M, 1×10^−6 M, 1×10^−7 M, 1×10^−8 M, 1×10^−9 M, 1×10^−10 M, and 1×10^−11 M, respectively, and homogeneously mixed.
4. The dye was removed. Freshly prepared calcium buffer was used to wash for one time, 50 μl of calcium buffer was added.
5. FlexStation II was used for detection. 25 μl of calcium buffer containing the medicament to be determined was added automatically from the 15th second.

[1] = HEK293/CCR5-Gα16 cell line, calcium flux, read-out: CCR5 IC50

Sequence of CCR5 (P51681 whole entry): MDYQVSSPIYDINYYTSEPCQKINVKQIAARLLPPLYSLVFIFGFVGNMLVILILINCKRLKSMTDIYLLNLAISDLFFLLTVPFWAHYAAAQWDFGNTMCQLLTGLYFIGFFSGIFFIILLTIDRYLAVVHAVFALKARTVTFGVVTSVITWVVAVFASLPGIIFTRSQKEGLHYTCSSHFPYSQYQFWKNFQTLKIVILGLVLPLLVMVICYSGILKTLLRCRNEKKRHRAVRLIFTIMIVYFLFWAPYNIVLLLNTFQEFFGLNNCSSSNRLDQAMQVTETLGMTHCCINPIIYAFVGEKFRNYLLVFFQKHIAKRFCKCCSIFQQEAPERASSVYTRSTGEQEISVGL

SMILES | IC50 [1] | calcium influx inhibition effect in words, versus positive control compounds | IC50
COc1ccc([C@H](CCN2C3CCC2CC(n2c(C)nnc2C(C)C)C3)NC(=O)C2CCN(S(C)(=O)=O)CC2)s1 (stereo partly drawn) [Compound 148, N-[(1S)-3-[exo-3-(3-isopropyl-5-methyl-4H-1,2,4-triazol-4-yl)-8-azabicyclo[3.2.1]octane-8-yl]-1-(5-methoxythiophen-2-yl)propyl]-1-methylsulfonylpiperidine-4-carboxamide] | 3.42 nM | better than the positive control compounds | 
CCc1ccc([C@H](CCN2C3CCC2CC(n2c(C)nnc2C(C)C)C3)NC(=O)C2CCCCC2)s1 (stereo partly drawn) [Compound 65, N-[(1S)-3-[exo-3-(3-isopropyl-5-methyl-4H-1,2,4-triazol-4-yl)-8-azabicyclo[3.2.1]octane-8-yl]-1-(5-ethylthiophen-2-yl)propyl]cyclohexane-1-carboxamide] | 1.62 nM | better than the positive control compounds | 
Cc1nnc(C(C)C)n1C1CC2CCC(C1)N2CC[C@H](NC(=O)Cc1nnn[nH]1)c1cccs1 (stereo partly drawn) [Compound 158, N-[(1S)-3-[exo-3-(3-isopropyl-5-methyl-4H-1,2,4-triazol-4-yl)-8-azabicyclo[3.2.1]octane-8-yl]-1-(thiophen-2-yl)propyl]-2-(1H-tetrazol-5-yl)acetamide] | 14.9 nM |  | 
Cc1nnc(C(C)C)n1C1CC2CCC(C1)N2CC[C@H](NC(=O)Cn1ncnn1)c1ccc(F)s1 (stereo partly drawn) [Compound 157, N-[(1S)-3-[exo-3-(3-isopropyl-5-methyl-4H-1,2,4-triazol-4-yl)-8-azabicyclo[3.2.1]octane-8-yl]-1-(5-fluorothiophen-2-yl)propyl]-2-(2H-tetrazol-2-yl)acetamide] | 1.23 nM | better than the positive control compounds | 
Cc1nnc(C(C)C)n1C1CC2CCC(C1)N2CC[C@H](NC(=O)C1CCCC1)c1nccs1 (stereo partly drawn) [Compound 117, N-[(1S)-3-[exo-3-(3-isopropyl-5-methyl-4H-1,2,4-triazol-4-yl)-8-azabicyclo[3.2.1]octane-8-yl]-1-(thiazol-2-yl)propyl]cyclopentane-1-carboxamide] | 16.1 nM |  | 
CC(=O)N[C@@H](CCN1C2CCC1CC(n1c(C)nc3c1CCN(C(=O)C(C)C)C3)C2)c1cccc(F)c1 (some centres unmarked) [PF-232798, reference compound] | 8.29 nM |  | 
COc1ccc([C@H](CCN2C3CCC2CC(n2c(C)nnc2C(C)C)C3)NC(=O)Cc2nnn[nH]2)s1 (stereo partly drawn) [Compound 160, N-[(1S)-3-[exo-3-(3-isopropyl-5-methyl-4H-1,2,4-triazol-4-yl)-8-azabicyclo[3.2.1]octane-8-yl]-1-(5-methoxythiophen-2-yl)propyl]-2-(1H-tetrazol-5-yl)acetamide] |  | better than the positive control compounds | 1.34 nM
Cc1nnc(C(C)C)n1C1CC2CCC(C1)N2CC[C@H](NC(=O)C1CCCCC1)c1ccc(Cl)s1 (stereo partly drawn) [Compound 113, N-[(1S)-3-[exo-3-(3-isopropyl-5-methyl-4H-1,2,4-triazol-4-yl)-8-azabicyclo[3.2.1]octane-8-yl]-1-(5-chlorothiophen-2-yl)propyl]cyclohexane-1-carboxamide] | 8.14 nM |  | 
Cc1ccc([C@H](CCN2C3CCC2CC(n2c(C)nnc2C(C)C)C3)NC(=O)C2CCN(S(C)(=O)=O)CC2)s1 (some centres unmarked) [Compound 147] | 2.48 nM | better than the positive control compounds | 
Cc1nnc(C(C)C)n1C1CC2CCC(C1)N2CC[C@H](NC(=O)Cc1nnn[nH]1)c1ccc(C#N)s1 (stereo partly drawn) [Compound 161, N-[(1S)-3-[exo-3-(3-isopropyl-5-methyl-4H-1,2,4-triazol-4-yl)-8-azabicyclo[3.2.1]octane-8-yl]-1-(5-cyanothiophen-2-yl)propyl]-2-(1H-tetrazol-5-yl)acetamide] |  | comparable to the positive control compounds | 8.36 nM
Cc1nnc(C(C)C)n1C1CC2CCC(C1)N2CC[C@H](NC(=O)Cn1ncnn1)c1cccs1 (stereo partly drawn) [Compound 152, N-[(1S)-3-[exo-3-(3-isopropyl-5-methyl-4H-1,2,4-triazol-4-yl)-8-azabicyclo[3.2.1]octane-8-yl]-1-(thiophen-2-yl)propyl]-2-(2H-tetrazol-2-yl)acetamide] | 7.98 nM | comparable to the positive control compounds | 
Cc1nnc(C(C)C)n1C1CC2CCC(C1)N2CC[C@H](NC(=O)Cn1cnnn1)c1cccs1 (stereo partly drawn) [Compound 172, N-[(1S)-3-[exo-3-(3-isopropyl-5-methyl-4H-1,2,4-triazol-4-yl)-8-azabicyclo[3.2.1]octane-8-yl]-1-(thiophen-2-yl)propyl]-2-(1H-tetrazol-1-yl)acetamide] | 9.38 nM | better than the positive control compounds | 
COC(=O)c1ccc([C@H](CCN2C3CCC2CC(n2c(C)nnc2C(C)C)C3)NC(=O)C2CCC(F)(F)CC2)s1 (stereo partly drawn) [Compound 88, 4,4-difluoro-N-[(1S)-3-[exo-3-(3-isopropyl-5-methyl-4H-1,2,4-triazol-4-yl)-8-azabicyclo[3.2.1]octane-8-yl]-1-(5-methoxycarbonylthiophen-2-yl)propyl]cyclohexane-1-carboxamide] | 9.26 nM |  | 
Cc1nnc(C(C)C)n1C1CC2CCC(C1)N2CC[C@H](NC(=O)C1CCCC1)c1ccc(Cl)s1 (stereo partly drawn) [Compound 114, N-[(1S)-3-[exo-3-(3-isopropyl-5-methyl-4H-1,2,4-triazol-4-yl)-8-azabicyclo[3.2.1]octane-8-yl]-1-(5-chlorothiophen-2-yl)propyl]cyclopentane-1-carboxamide] | 9.27 nM |  | 
Cc1nnc(C(C)C)n1C1CC2CCC(C1)N2CC[C@H](NC(=O)C1CCN(S(C)(=O)=O)CC1)c1ccc(Cl)s1 (stereo partly drawn) [Compound 150, N-[(1S)-3-[exo-3-(3-isopropyl-5-methyl-4H-1,2,4-triazol-4-yl)-8-azabicyclo[3.2.1]octane-8-yl]-1-(5-chlorothiophen-2-yl)propyl]-1-methylsulfonylpiperidine-4-carboxamide] | 2.22 nM | better than the positive control compounds | 
Cc1nnc(C(C)C)n1C1CC2CCC(C1)N2CC[C@H](NC(=O)Cc1nnn[nH]1)c1ccc(F)s1 (stereo partly drawn) [Compound 163, N-[(1S)-3-[exo-3-(3-isopropyl-5-methyl-4H-1,2,4-triazol-4-yl)-8-azabicyclo[3.2.1]octane-8-yl]-1-(5-fluorothiophen-2-yl)propyl]-2-(1H-tetrazol-5-yl)acetamide] | 13.3 nM |  | 
CC(=O)N[C@@H](CCN1C2CCC1CC(n1c(C)nc3c1CCN(C(=O)C(C)C)C3)C2)c1cc(C)cs1 (stereo partly drawn) [Compound 145, N-{(1S)-3-[(3-endo)-3-(5-isobutyryl-2-methyl-4,5,6,7-tetrahydro-1H-imidazo[4,5-c]pyridin-1-yl)-8-azabicyclo[3.2.1]octane-8-yl]-1-(4-methylthiophen-2-yl)-propyl}acetamide] | 13.3 nM |  | 
Cc1nc2c(n1C1CC3CCC(C1)N3CC[C@H](NC(=O)C1CCC(F)(F)CC1)c1ccsc1)CCN(C(=O)C(C)C)C2 (stereo partly drawn) [Compound 43, 4,4-difluoro-N-{(1S)-1-(thiophen-3-yl)-3-[(3-endo)-3-(5-isobutyryl-2-methyl-4,5,6,7-tetrahydro-1H-imidazo[4,5-c]pyridin-1-yl)-8-azabicyclo[3.2.1]octane-8-yl]propyl}cyclohexane-1-carboxamide] | 8.34 nM |  | 
CCCC(=O)N1CCc2c(nc(C)n2C2CC3CCC(C2)N3CC[C@H](NC(C)=O)c2nccs2)C1 (stereo partly drawn) [Compound 123, N-{(1S)-3-[(3-endo)-3-(5-n-butyryl-2-methyl-4,5,6,7-tetrahydro-1H-imidazo[4,5-c]pyridin-1-yl)-8-azabicyclo[3.2.1]octane-8-yl]-1-(thiazol-2-yl)-propyl}acetamide] | 12.1 nM | better than the positive control compounds | 
CC(=O)N[C@@H](CCN1C2CCC1CC(n1c(C)nc3c1CCN(C(C)=O)C3)C2)c1ccc(C#N)s1 (stereo partly drawn) [Compound 144, N-{(1S)-3-[(3-endo)-3-(5-acetyl-2-methyl-4,5,6,7-tetrahydro-1H-imidazo[4,5-c]pyridin-1-yl)-8-azabicyclo[3.2.1]octane-8-yl]-1-(5-cyanothiophen-2-yl)-propyl}acetamide] | 8.53 nM |  | 
Cc1nnc(C(C)C)n1C1CC2CCC(C1)N2CC[C@H](NC(=O)Cn1ncnn1)c1ccc(Cl)s1 (stereo partly drawn) [Compound 156, N-[(1S)-3-[exo-3-(3-isopropyl-5-methyl-4H-1,2,4-triazol-4-yl)-8-azabicyclo[3.2.1]octane-8-yl]-1-(5-chlorothiophen-2-yl)propyl]-2-(2H-tetrazol-2-yl)acetamide] | 9.85 nM | comparable to the positive control compounds | 

— patent US10167299B2, “1-(3-aminopropyl) substituted cyclic amine compounds, preparation method therefor, and pharmaceutical compositions and uses thereof” (SHANGHAI INSTITUTE OF MATERIA MEDICA, CHINESE ACADEMY OF …, priority 2013, dated 2019)
